Consider 58 compounds from PubChem BioAssay AID743395 (Broad Institute, 2014).

For this assay, the system named is HepG2 viability, CellTiter-Glo ATP luminescence, 72 h. Description: viability loss in human hepatoma cells – cell-based, CellTiter-Glo luminescence, cherry-pick, set 2, cytotoxicity control, dose response (AID 743395).

“And” between values parts separate entries of the source, which are not always exact repeats. Equal entries are not always repeated.

With `Cc1c(C(=O)N/N=C/c2c(O)ccc3ccccc23)nnn1-c1nonc1N`, the AC35 was 1.32 µM.
In the case of `C[C@@H]1CN([C@@H](C)CO)C(=O)c2cc(C#CCN(C)C)cnc2O[C@H]1CN(C)Cc1ccc(-c2ccccc2)cc1`, the AC35 was 11.5 µM.
Regarding `O=C(C[C@@H]1CC[C@@H]2[C@H](COC[C@H](O)CN2Cc2ccc(Oc3ccccc3)cc2)O1)N1CCN(c2ccccc2)CC1`, the AC35 is 7.84 µM.
Take `CNc1ccc2c3c(cccc13)C(=O)N(C)C2=O`: the AC35 was 15.7 µM.
Regarding `CCN(CC)CCC(=O)Nc1cccc2c1C(=O)c1ccccc1C2=O`, the AC35 was 6.39 µM.
As to `CCCC(=O)NC1=C(Cl)C(=O)c2ccccc2C1=O`, the AC35 is 9.76 µM.
On to `Cc1ccc(C2(C)NC(=O)N(CC(=O)Nc3nc(-c4ccccn4)cs3)C2=O)cc1` (stereo not drawn), for which the AC35 is 4.46 µM.
In the case of `C=C1C(=O)O[C@@H]2[C@H]1[C@@H](OC(=O)/C(C)=C/C)C/C(C)=C\C(=O)/C=C(\C)[C@@H]2O` it was 8.97 µM; in that of `COc1ccc2[nH]c(C(=O)N/N=C/c3ccc(O)cc3O)cc2c1`, 3.37 µM; in that of `COc1ccc(OC)c(-c2cc(-c3cccnc3)nc(N)c2C#N)c1`, 10.6 µM.
For `Clc1ccc(SCc2cc(N3CCOCC3)nc(-c3ccccn3)n2)cc1`, the AC35 was 9 µM.
As to `CCCCNc1c(-c2ccc(SC(C)CC)c(OC)c2)nc2ccc(C)cn12` (stereo not drawn), the AC35 was 13.6 µM.
Regarding `Cc1cc(C)c2nc(Cl)c(CN(Cc3ccco3)C(=O)Nc3ccccc3C)cc2c1`, the AC35 is 5.84 µM.
Consider `COc1ccc(C2=Nn3c(nnc3-c3ccccc3F)SC2)cc1OC1CCOC1` (stereo not drawn), for which the AC35 was 13.2 µM.
For `C[C@@H]1CN([C@H](C)CO)S(=O)(=O)c2ccc(-c3ccccc3)cc2O[C@H]1CN(C)Cc1ccccn1`, the AC35 was 16.7 µM.
As for `COc1ccccc1Nc1c2c(nc3ccccc13)CCC2`, the AC35 was 7.12 µM.
As to `Cc1ccnc2c1ccc1cccnc12`, the AC35 is 2.98 µM.
In the case of `O=C1c2ccccc2C(=O)c2c1cccc2N1CCCC1`, the AC35 was 18.9 µM.
For `COc1ccc(CNS(=O)(=O)c2cc(-c3cc(C)no3)ccc2C(C)C)cc1`, the AC35 is 7.14 µM.
As to `COc1ccc(OC)c(-c2cnc(OC(C)(C)C)nc2OC(C)(C)C)c1`, the AC35 is 19.3 µM.
Consider `COc1ccc(/C=N/NC(=S)Nc2ccccc2[N+](=O)[O-])cc1O`, for which the AC35 was 14.4 µM.
Take `CC(=NNC(=S)N1CC2CCC(CC2)C1)c1cnccn1`: the AC35 is 0.171 µM.
As to `COc1cc(/C=C2/SC(=S)N(Cc3ccccc3)C2=O)cc(Cl)c1O`, the AC35 is 12.5 µM.
`CN(C)CCNC(=O)c1ccc(Cl)c2cc3ccccc3nc12`: the AC35 is 2.59 µM.
For the compound `COc1ccc(C2CC(c3cccc(Br)c3)=NN2c2ccc(S(N)(=O)=O)cc2)cc1` (stereo not drawn), the AC35 was 18.1 µM.
To `Cc1ccc(Nc2nc(-c3sc(C)nc3C)cs2)cc1` belongs 3.7 µM; to `C[C@H](CO)N1C[C@H](C)[C@H](CN(C)C(=O)NC2CCCCC2)Oc2cc(C#Cc3cccc(F)c3)ccc2S1(=O)=O`, 10.9 µM; to `Cc1ccc(C)c(C2NC(=O)c3ccccc3N2)c1` (stereo not drawn), 5.13 µM.
As to `N#C/C(=C/c1ccc(N2CCCCC2)o1)C(=O)Nc1ccc2ccccc2c1`, the AC35 was 21.1 µM.
In the case of `COc1ccc(-c2ccc3oc(-c4ccc(OC)cc4)c(C#CCO)c3c2)cc1` it was 3.2 µM; in that of `Brc1ccc2c(c1)C(C1=NCCN1)c1ccccc1CS2` (stereo not drawn), 18.3 µM.
As for `COc1cccc(N2CCN(C(=O)c3ccc(CS(=O)c4ccc(C)cc4)o3)CC2)c1` (stereo not drawn), the AC35 is 0.833 µM.
Turning to `COc1ccc(C(=O)c2ccc(N(C)C)cc2)c(OC)c1`, the AC35 was 14.9 µM.
For the compound `Oc1ccc2ccccc2c1C=NNc1ccccn1`, the AC35 is 7.59 µM.
For `C[C@H]1CN([C@@H](C)CO)S(=O)(=O)c2ccc(C#Cc3ccc(F)cc3)cc2O[C@H]1CN(C)C(=O)NC1CCCC1`, the AC35 was 19.1 µM.
Take `C[n+]1c2cc(N)ccc2cc2ccc(N)cc21`: the AC35 was 1.17 µM and 2.2 µM.
Turning to `CCOC(=O)N1CCC(NC(=O)c2ccc3c(c2)N=C(C)c2c(C)ccc(C)c2S3)CC1`, the AC35 is 2.44 µM.
With `COc1cccc(C(=O)Nc2sc3c(c2C#N)CCN(C(C)=O)C3)c1`, the AC35 was 11.6 µM.
In the case of `CCOC(=O)c1ccc(N2CCOCC2)c(NC(=O)c2c(-c3ccccc3)noc2C)c1` it was 3.87 µM; in that of `CC(=O)c1ccc(Nc2cc(C)nc3c(C)cc(C)cc23)cc1`, 7.71 µM; in that of `C=C1C(=O)[C@]23C[C@H]1CC[C@H]2[C@]1(C)[C@@H](OC(C)=O)CC[C@@](C)(C(=O)O)[C@H]1C[C@@H]3O`, 11.3 µM.
In the case of `Cc1ccc(OCCNC(=O)c2cccc(S(=O)(=O)NCc3ccccc3)c2)cc1` it was 15.2 µM; in that of `O=C1/C(=C\c2cc(Cl)c(O)c(Cl)c2)SC(=S)N1Cc1ccccc1`, 15.4 µM.
Take `COC(=O)c1cn(NC(=O)c2cc([N+](=O)[O-])ccc2F)c(=O)c2ccccc12`: the AC35 is 0.521 µM.
As for `C/C(=N\NC(=O)c1c(Cl)c(C)nn1C)c1ccc(NC(=O)C2CCC2)cc1`, the AC35 is 4.43 µM.
In the case of `C=CCN1c2ccccc2[C@]23C[C@@H](C(=O)OC)N(C(=O)c4cccs4)C2=NC(C(=O)OC)=C(C(=O)OC)[C@H]13` it was 19.1 µM; in that of `CC(C)Cc1ccc(-c2cc3nc(NCc4cccc(Cl)c4)ccn3n2)cc1`, 11.1 µM.
Regarding `COc1cccc(/C=N/Nc2ncnc(Cl)c2N)c1O`, the AC35 was 2.15 µM.
As to `C[C@@H]1CN([C@@H](C)CO)C(=O)Cc2cc(NC(=O)Nc3cccc4ccccc34)ccc2O[C@@H]1CN(C)Cc1ccc(Cl)c(Cl)c1`, the AC35 was 14.5 µM.
As for `Cn1cc(C(=O)N/N=C/c2ccc3c(c2)OCO3)c2ccccc21`, the AC35 was 11.2 µM.
As for `CC1=Nc2cc(C(=O)NCC3CCCO3)ccc2Sc2ccc(Br)cc21` (stereo not drawn), the AC35 is 19.4 µM.
`COc1ccccc1NC(=S)NN=C(C)c1ccccn1`: the AC35 is 0.0927 µM.
In the case of `O=c1[nH]c(/C=C/c2ccccc2F)nc2ccccc12` it was 9.06 µM; in that of `COc1cc(OC)c2c(-c3cccc(-c4cccc(N)c4)c3)cc(=O)oc2c1`, 13.4 µM; in that of `CC(C)C[C@H]1CN([C@@H](CC(C)C)CN2CCC[C@@H]2CN2C(=S)NC[C@@H]2Cc2ccc(O)cc2)C(=S)N1CCc1ccccc1`, 19.2 µM.
Take `COc1cc2c(-c3ccccc3)c(C)oc2cc1/C=N/NC(N)=S`: the AC35 is 6.29 µM.
Take `Nc1ccc2c3c(cccc13)C(=O)N(c1ccccc1)C2=O`: the AC35 was 10.7 µM.
Consider `O=C1NC(=Nc2ccc(O)cc2)S/C1=C/c1ccco1`, for which the AC35 is 11.7 µM.
